This is an account of results in patent US12128040B2, “Selective estrogen receptor degraders” (Eli Lilly and Company, priority 2018, dated 2024).

Data set [1] concerns PGR (Progesterone Receptor alpha) gene expression. Briefly: In vivo target inhibition (IVTI) assay (PGR RT-qPCR) in MCF7 tumors. Particulars: MCF7 tumor xenograft, 30 mg/kg orally, 24 hours. Also on record: species or system mice. How it is done: The purpose of this IVTI assay is to measure the ability of a test compound (SERD) to inhibit PGR (Progesterone Receptor alpha) gene expression (transcription) downstream of ERα in xenograft tumors implanted in mice.
Implant female NOD SCID mice (22-25 g) from Envigo RMS, Inc., Madison, Wisconsin with 5×10e^6 MCF7 ER+ve breast cancer cells (ATCC, #HTB-22) subcutaneously in the right flank region in 1:1 HBSS+[…]™ solution (200 μL). Implant a […] pellet (0.18 mg/pellet, 90 day release, from Innovative research) subcutaneously 1 day prior to tumor cell implantation. […] Sacrifice animals using isoflurane anesthesia plus cervical dislocation. Flash freeze tumors and store at −80° C. until processing for RNA isolation and RT-qPCR assay. Collect blood in EDTA tubes, spin down for plasma, and freeze at −80° C. in a 96-well plate. Determine test compound exposures using mass spectrometry.
Pulverize tumors in liquid nitrogen and lyse in 1×RNA lysis buffer (from RNA isolation kits) using Matrix D beads (MP Biomedical, #6913-500) in a FASTPREP-24™ Cell Disrupter machine (MP Biomedical). […] Measure isolated RNA concentration by diluting samples in RNase free water and measuring the absorbance at 260 nm on a plate reader (SpectraMax190). Subtract the average 260 nm absorbance measurement of the blank (RNase free water only) from the 260 nm measurements of all other RNA samples. […]
On the technique in general: In qPCR the cycle at which signal appears reflects the starting amount.

Data set [2] is described as follows: Rat oral bioavailability assay. In kind it is in vivo. The settings on record: plasma, Sprague-Dawley rats, IV 1 mg/kg, PO 10 mg/kg, read-out: oral bioavailability (% F). How it is done:
Administer the test compound to Sprague-Dawley rats IV at 1 mg/kg (using vehicles of either: 20% CAPTISOL© in 25 mM sodium phosphate buffer, pH2 quantum satis; or 25% DMA, 15% EtOH, 10% propylene glycol, 25% 2-pyrrolidone, and 25% purified water) and PO at 10 mg/kg (using a vehicle of 1% hydroxyethyl cellulose, 0.25% polysorbate 80, 0.05% Antifoam 1510-US, and purified water quantum satis). Collect serial blood samples at 0.08, 0.25, 0.5, 1, 2, 4, 8, and 12 hours post dose for IV bolus and at 0.25, 0.5, 1, 2, 4, 8, and 12 hours post dose after oral administration. After treatment with an EDTA […], obtain plasma by centrifugation and stored at −70° C. until analysis by LC-MS/MS. Determine the test compound concentration in plasma and upload into the Watson LIMS™ system where noncompartmental analysis is used to calculate Area Under the Curve (AUC) for both IV and PO arms. Calculate oral bioavailability (% F) via the following equation, % F=(AUCPO×DoseIV)/(AUCIV×DosePO)×100.

Regarding `O=C(c1ccc(OCCN2CC(CF)C2)cc1)c1c(-c2ccc(C(F)(F)F)cc2F)cnc2cc(O)ccc12` [Example 1, (4-{2-[3-(Fluoromethyl)azetidin-1-yl]ethoxy}phenyl){3-[2-fluoro-4-(trifluoromethyl)phenyl]-7-hydroxyquinolin-4-yl}methanone], the “inhibition of PRα (PGR) expression” value in data set [1] is given as 57%. Further, the bioavailability (commonly dose-corrected exposure relative to a reference, in per cent) in data set [2] came to 27%.
